Laboratory results reported in patent publication US20150368195A1, “INDOLINE COMPOUNDS FOR TREATMENT AND/OR PREVENTION OF INFLAMMATION DISEASES” (Taipei Medical University, priority 2014, published 2015).

Legend:
HDAC1 and HDAC6 = assay: overexpression of HDAC1 and HDAC6 in RAW264.7 macrophages or RA-FLS
Method: Cells were then tartrate resistant acid phosphatase
(TRAP) stained, and the numbers of TRAP-positive multinuclear cells were counted (FIG. 7D) or were incubated with a fluorescein isothiocyanate (FITC)-conjugated anti-CD51/61 antibody and analyzed by flow cytometry (FIG. 7E).

interleukin-6 (IL-6) = assay: LPS-induced IL-6 production in RAW 264.7 macrophages; settings: Mus musculus, RAW264.7, read-out: IC50 IL-6
nitric oxide (NO) = assay: LPS-induced nitric oxide production in RAW 264.7 macrophages; type: cell-based, Mouse
Method: Nitrite concentration was determined using a dilution of sodium nitrite as a standard.
(§1) Furthermore, the anti-inflammatory effects of MPT0G009 was evaluated. […] These supernatants were then assayed for PGE2, NO, and IL-6.

prostaglandin E2 (PGE2) [1] = assay: LPS-induced PGE2 production by RA-FLS; type: cell-based; settings: MPT0G009 0.1, 1, 10 μM; SAHA 0.3, 3, 30 μM; LPS 25 ng/mL 24 h
Method: (FIG. 1A) Structure of MPT0G009. […] Results in (FIGS. 1B-E) and (FIG. 1G) are means±SEM's for three independent experiments, *p<0.05 and **p<0.01 compared with no added inhibitor.
as §1

[2] = in vivo rat pharmacokinetic profiling; parameters: species or system rats
Source text: The pharmokinetic parameters of MPT0G009 in rats after single-dose intravenous (i.v.) and oral administration are summarized in Table 2. […].

CTGF = assay: pro-fibrogenic mediator-induced CTGF production, Western blot; type: cell-based, human; settings: WI-38 lung fibroblasts
Method: Western blot analysis was performed. First, WI-38 lung fibroblasts were incubated with different concentrations of MPT0E028 (0.01, 0.03, 0.1, 0.3, or 1 μM) (FIG. 10A) or MPT0G009 (0.01, 0.03, 0.1, 0.3, or 1 μM) (FIG. 10B) for 30 min before and during incubation for 2 h with TGF-β (10 ng/mL). WI-38 lung fibroblasts were incubated with 1 μM MPT0E028 and MPT0G009 for 30 min and following another incubation for 2 h with 1 U/ml thrombin (FIG. 10C) and 10 nM ET-1 (FIG. 10D). The collagen I production from WI-38 lung fibroblasts stimulated by 10 ng/mL TGF-β for 24 h was inhibited with 1 μM MPT0E028 and MPT0G009 pretreatment (FIG. 10E).
WI-38 cells, a normal human embryonic lung fibroblast cell line, were obtained from American Type Culture Collection (Manassas, Va.). Cells were grown in MEM nutrient mixture, containing 10% FCS, 2 mM L-glutamine, 0.1 mM NEAA, 1 mM sodium pyruvate, 50 U/ml penicillin G, and 100 μg/ml streptomycin, in a humidified 37° C. incubator with 5% CO2 Cells were used between passages 18 and 30 for all experiments. After reaching confluence, cells were seeded onto 6-cm dishes for immunoblotting.
Western blot analyses were performed as described previously (Chen B C, Chang Y S, Kang J C, Hsu M J, Sheu J R, Chen T L, et al. Peptidoglycan induces nuclear factor-kappaB activation and cyclooxygenase-2 expression via Ras, Raf-1, and ERK in RAW 264.7 macrophages. J Biol Chem 2004; 279:20889-97). Briefly, WI-38 lung fibroblasts were cultured in 6-cm dishes. After reaching confluence, cells were pretreated with specific inhibitors (E028 and G009) as indicated for 30 min, and then treated with the vehicle (H2O) or 10 ng/ml TGF-β for 2 h (CTGF assay) or 24 h (collagen I assay). Whole-cell lysates ([…]) were subjected to 12% (CTGF) or 8% (collagen I) SDS-PAGE, and transferred onto a polyvinylidene difluoride membrane which was then incubated in TBST buffer (150 mM NaCl, 20 mM Tris-HCl, and 0.02% Tween 20; pH 7.4) containing 5% BSA. Proteins were visualized by specific primary antibodies and then incubated with HRP-conjugated secondary antibodies. The immunoreactivity was detected using enhanced chemiluminescence (ECL) following the manufacturer's instructions. Quantitative data were obtained using a computing densitometer with scientific imaging systems (Kodak, Rochester, N.Y.).
To determine whether the inhibitory effects of MPT0E028 and MPT0G009 on pro-fibrogenic mediators (TGF-β, thrombin, and ET-1) were related to the modulation of CTGF and Collagen I production, Western blot analysis was performed. First, WI-38 lung fibroblasts were incubated with different concentrations of MPT0E028 (0.01, 0.03, 0.1, 0.3, or 1 μM) (FIG. 10A) or MPT0G009 (0.01, 0.03, 0.1, 0.3, or 1 μM) (FIG. 10B) for 30 min before and during incubation for 2 h with TGF-β (10 ng/mL). […] Furthermore, we examined the effects of MPT0E028 and MPT0G009 on other pro-fibrogenic mediators. As shown in FIGS. 10C and 10D, WI-38 lung fibroblasts were incubated with 1 μM MPT0E028 and MPT0G009 for 30 min and following another incubation for 2 h with 1 U/ml thrombin (FIG. 10C) and 10 nM ET-1 (FIG. 10D).

prostaglandin E2 (PGE2) [3] = assay: LPS-induced PGE2 production in RAW 264.7 macrophages; type: cell-based, Mouse
Method: as §1

[4] = MPT0G009 0.1, 1, 10 μM, SAHA 0.3, 3, 30 μM, LPS 25 ng/mL 24 h
[5] = Mus musculus, RAW264.7, LPS-stimulated RAW 264.7 macrophages, mean ± SEM, three experiments

Structure (SMILES): COc1ccc(S(=O)(=O)N2CCc3cc(C=CC(=O)NO)ccc32)cc1 [Compound 9, 3-[1-(4-methoxybenzenesulfonyl)-2,3-dihydro-1H-indol-5-yl]-N-Hydroxyacrylamide]
- effect of HDAC overexpression on inhibition of M-CSF/RANKL-induced osteoclast differentiation and CD51/61 expression (HDAC1 and HDAC6; 5 nM MPT0G009, transfected RAW264.7): significantly reduced
- effect of HDAC overexpression on inhibition of LPS-mediated NO or PGE2 release (HDAC1 and HDAC6; 10 μM MPT0G009 or 30 μM SAHA, HDAC1- and HDAC6-coexpressing RAW264.7 or RA-FLS): significantly reduced the inhibitory effects
- IC50 (interleukin-6 (IL-6)): 10 nM
- NO production by RAW264.7 cells (nitric oxide (NO); [4]): inhibited
- IC50 (nitric oxide (NO); [5]): 1070 nM
- PGE2 production by RA-FLS (prostaglandin E2 (PGE2) [1]): inhibited
- T1/2 ([2]; rat, in vivo, iv, 2 mg/kg): 6.74 h
- Vd ([2]; rat, in vivo, iv, 2 mg/kg): 25.21 L/kg
- T1/2 ([2]; rat, in vivo, po, 20 mg/kg): 9.53 h
- F ([2]; rats, po 20 mg/kg, MPT0G009): 13.0%
- ET-1-induced CTGF expression (CTGF; 1 μM, 10 nM ET-1 2 h): inhibited
- thrombin-induced CTGF expression (CTGF; 1 μM, 1 U/ml thrombin 2 h): inhibited
- TGF-β-induced CTGF production (CTGF; 0.01-1 μM, TGF-β 10 ng/mL 2 h): significantly inhibited
- PGE2 production by RAW264.7 cells (prostaglandin E2 (PGE2) [3]; [4]): inhibited
- IC50 (prostaglandin E2 (PGE2) [3]; [5]): 520 nM
